Like-named read-outs stand apart in the source and are kept apart here.
Columns and labels:
[1] = system: endothelial cells (canine aorta); experiment: Serum (1%)-induced endothelial cell proliferation, 3H-thymidine incorporation; type: cell-based; settings: for IC50: read-out: ED50 FOR ENDOTHELIAL CELL (concentration at which proliferation is inhibited by 50%)
Protocol: (§1) The effect of 1% serum on DNA synthesis by endothelial or smooth muscle cells using ^3 H-thymidine incorporation was measured. For measuring the effectiveness of retinoids in inhibiting endothelial or smooth muscle cell proliferation induced by certain mitogens, i.e., serotonin or β-FGF the indicated concentrations were added to the media instead of 1% serum. Primary cells isolated from canine aorta were used for these studies. Unlike the typical cell lines (e.g. NIH 3T3 cells, etc.) 6-7 weeks are required to isolate and grow these primary cells in sufficient number to perform a single experiment. For the following studies, the primary cells (passages 2-4) were plated on 35×10 mm tissue culture dishes in 10% fetal bovine serum (FBS) and incubated. After 72 hours of growth the medias was replaced with 0.1% FBS for synchronization and incubated for additional 72 hours. Then 1% serum was added and incubated for 20 hours followed by the addition of 1μCi of ^3 H-thymidine. Four hours after the addition of 3H-thymidine the DNA was precipitated and the amount of ^3 H-thymidine incorporated was measured. This value is reported as the serum or serotonin or β-FGF stimulated value for cellular proliferation and is expressed as a percentage of baseline ^3 H-thymidine incorporation.
(§2) To examine the antiproliferative effect of retinoids, they were dissolved in 100% ethanol and then added at the indicated final concentrations. The compounds were added at the time of adding 1% serum or serotonin or β-FGF to stimulate the cells. (The maximal final concentration of ethanol in culture media was 1% which is non-cytotoxic to endothelial or smooth muscle cells). After 20 hours of incubation with retinoids and 1% serum or serotonin or β-FGF, the ^3 H-thymidine incorporation was measured.
(§3) In this experimental dosages ranging between 0.01 and 100 μM were evaluated for the effect of AGN 191183 on cell growth.
(§4) The other retinoids, disclosed above, were also tested for their effect on smooth muscle and endothelial cell growth at the same dosages as for AGN 191183. Table 2 reports the ED50 for each of these retinoids.

RAR and RXR receptor = experiment: RAR vs RXR agonist activity (retinoid selectivity); type: biochemical; settings: Table 2; RAR selective agonist preferably has RAR vs RXR activity ratio of at least 5
Excerpt: (Of course, pan agonists show agonist activity at both the RAR and RXR receptor.)
A pan agonist will have activity at both of the RAR and RXR receptor, e.g. similar potency at the RAR and RXR receptor.

[2] = system: smooth muscle cells (canine aorta); experiment: Serum (1%)-induced smooth muscle cell proliferation, 3H-thymidine incorporation; type: cell-based; settings: for IC50: Canis lupus familiaris, read-out: ED50 FOR SMOOTH MUSCLE CELLS (concentration at which proliferation is inhibited by 50%); for rank order potency on smooth muscle cells: from Table 2
Protocol: as §1, §2, §3, §4

[3] = system: smooth muscle cells (canine aorta); experiment: as above; type: cell-based; settings: serum induced; Table 2; read-out: ED50 FOR SMOOTH MUSCLE CELLS (concentration at which proliferation is inhibited by 50%)
[4] = Canis lupus familiaris, Endothelial cell, serum induced, Table 2

Row | SELECTIVITY (RAR and RXR receptor) | Structure (SMILES) | IC50 ([1]; Canis lupus familiaris, Endothelial cell) | order of potency for endothelial cells ([1]; serum induced, from Table 2) | IC50 [2] | IC50 [1, 4] | IC50 ([2]; serum induced, Table 2) | rank order potency on smooth muscle cells ([2]; serum induced) | IC50 ([1]; serum induced, Table 2) | IC50 [3]
1 | RAR | CC(C)(C)c1ccc(C#Cc2ccc(C(=O)O)cn2)cc1OC1CCCCO1 (stereo not shown) [AGN 192327, 6-[2-(3-(2-tetrahydropyranyl)oxy)-(4-(1,1-dimethylethyl)phenyl)ethynyl]-3-nicotinic acid] |  |  |  | 29 µM | 4 µM | AGN 191659=191183>AGN 192327>AGN 191985>AGN 192326 |  | 
2 | RAR | CC(C)(C)c1ccc(C#Cc2ccc(C(=O)O)cc2)cc1OC1CCCCO1 (stereo not shown) [AGN 192326, 4-[2-(3-(2-tetrahydropyranyl)oxy)-(4-(1,1-dimethylethyl)phenyl)ethynyl]benzoic acid] |  |  |  | 16.5 µM | 6.5 µM | AGN 191659=191183>AGN 192327>AGN 191985>AGN 192326 |  | 
3 | RAR | CC1=C(/C=C/C#Cc2ccc(C(=O)O)cc2)C(C)(C)CCC1 [AGN 190121, (E)-4-[4-(2,6,6-trimethyl-1-cyclohexen-1-yl)but-2-en-1-ynyl] benzoic acid] |  |  |  | 23 µM | 46 µM |  |  | 
4 | PAN AGONIST | C/C(=C\c1ccc(C(=O)O)s1)c1cc2c(cc1C)C(C)(C)CCC2(C)C [AGN 191659, (E)-5-[2-(5,6,7,8-tetrahydro-3,5,5,8,8-pentamethyl-2-naphthalenyl)-1-propen-1-yl] thiophene-2-carboxylic acid] |  |  |  | 39 µM | 0.038 µM | AGN 191659=191183>AGN 192327>AGN 191985>AGN 192326 |  | 
5 | RXR | C/C(=C\c1cc(C(=O)O)cs1)c1cc2c(cc1C)C(C)(C)CCC2(C)C [AGN 191701, reference compound] |  |  |  |  |  |  | 28.5 µM | 18 µM

Row | Structure (SMILES) | SELECTIVITY (RAR and RXR receptor) | IC50 ([1]; Canis lupus familiaris, Endothelial cell) | order of potency for endothelial cells ([1]; serum induced, from Table 2) | IC50 [2] | IC50 [1, 4] | IC50 ([2]; serum induced, Table 2) | rank order potency on smooth muscle cells ([2]; serum induced) | IC50 ([1]; serum induced, Table 2) | IC50 [3]
6 | CC1(C)CCC(C)(C)c2cc(C#Cc3ccc(C(=O)O)cc3)ccc21 [AGN 190205, 4-[2-(5,6,7,8-tetrahydro-5,5,8,8-tetramethyl-2-naphthalenyl)ethynyl] benzoic acid] | RAR | 6.8 µM | AGN 192013>AGN 190205=AGN 191183 | 8.95 µM |  |  |  |  | 
